From paper PMC4118827, “Mapping the conformational space accessible to catechol-O-methyltransferase” (Acta Crystallographica Section D: Biological Crystallography, 2014) come the findings set out here.

In assay [1] the target is T1, humanized rat COMT (hrCOMT), catechol-O-methyltransferase (Rattus norvegicus, UniProt P22734, M134I/Y138C).
T1 sequence (P22734 44-264 M134I/Y138C): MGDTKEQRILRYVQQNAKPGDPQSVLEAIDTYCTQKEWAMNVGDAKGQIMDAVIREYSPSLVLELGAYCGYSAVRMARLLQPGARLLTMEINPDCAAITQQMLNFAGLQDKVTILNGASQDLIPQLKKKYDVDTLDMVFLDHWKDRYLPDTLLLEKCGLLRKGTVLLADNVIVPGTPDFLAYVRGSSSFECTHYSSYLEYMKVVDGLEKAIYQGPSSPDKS
Put plainly: co-crystal structure ([…]) at […] Å; IC50 from activity-based high-throughput screen. Type of assay: biochemical.

Assay [2] deals with T2, rat COMT (rCOMT), catechol-O-methyltransferase (Rattus norvegicus, UniProt P22734).
T2 construct: soluble N-terminally truncated form, lacks the N-terminal 43 residues
T2 sequence (P22734 44-264): T1 sequence (P22734 44-264 M134I/Y138C) with I91M, C95Y
Put plainly: co-crystal structures ([…]), semi-holo, and ([…]), with tolcapone and Mg2+. The format is binding.

Numbering of substitutions follows the chain as printed. pIC50: −log10 of the molar value.

`N=C(N)c1ccc(NC(=O)Nc2cccc(CN)c2)cc1` [4-[3-(3-aminomethylphenyl)-ureido]-benzamidine]: the pIC50 (commonly the IC50 on a negative log10 scale, so that one unit is a factor of ten) in assay [1] was 5.36.
Regarding `Nc1ncnc2c1ncn2[C@@H]1O[C@H](C[C@@H](N)CC[C@H](N)C(=O)O)[C@@H](O)[C@H]1O` [sinefungin], the “co-crystal structures (7), semi-holo, and (8), with tolcapone and Mg2+” value in assay [2] is recorded as “Co-crystal structure with the SAM analogue sinefungin. Semi-holo form”.
